Measured values: ChEMBL document CHEMBL3400138, “Synthesis of 3-azabicyclo[3.2.2]nonanes and their antiprotozoal activities” (Bioorg Med Chem Lett, 2015)
Calls of active or inactive are those of the source. The calls are words filed in the database; no cut-off is given here.

Key:
Plasmodium berghei [1] = assay: Antiplasmodial activity against GFP-transfected Plasmodium berghei ANKA infected in NMRI mouse assessed as mean survival day at 20 mg/kg, ip administered 4, 24, 48 and 72 hrs post infection (reference value: 4 days); type: functional; settings: route intraperitoneal
Candida albicans = assay: Antifungal activity against Candida albicans ATCC 10231 at 100 ug after 48 hrs; type: functional, organism-based
Plasmodium berghei [2] = assay: Antiplasmodial activity against GFP-transfected Plasmodium berghei ANKA infected in NMRI mouse assessed as mean survival day at 10 mg/kg, ip administered 4, 24, 48 and 72 hrs post infection (reference value: 4 days); type: functional; settings: route intraperitoneal
Plasmodium berghei [3] = assay: Antiplasmodial activity against GFP-transfected Plasmodium berghei ANKA infected in NMRI mouse assessed as mean survival day at 50 mg/kg, ip administered 4, 24, 48 and 72 hrs post infection (reference value: 4 to 6 days); type: functional; settings: route intraperitoneal
[4] = molecular target: Voltage-gated inwardly rectifying potassium channel KCNH2 (Homo sapiens, UniProt Q12809); assay: Inhibition of human ERG expressed in HEK293 cells assessed as reduction in tail current at membrane potential of +20 mV; type: cell-based
Sequence of Voltage-gated inwardly rectifying potassium channel KCNH2 (Q12809 whole entry): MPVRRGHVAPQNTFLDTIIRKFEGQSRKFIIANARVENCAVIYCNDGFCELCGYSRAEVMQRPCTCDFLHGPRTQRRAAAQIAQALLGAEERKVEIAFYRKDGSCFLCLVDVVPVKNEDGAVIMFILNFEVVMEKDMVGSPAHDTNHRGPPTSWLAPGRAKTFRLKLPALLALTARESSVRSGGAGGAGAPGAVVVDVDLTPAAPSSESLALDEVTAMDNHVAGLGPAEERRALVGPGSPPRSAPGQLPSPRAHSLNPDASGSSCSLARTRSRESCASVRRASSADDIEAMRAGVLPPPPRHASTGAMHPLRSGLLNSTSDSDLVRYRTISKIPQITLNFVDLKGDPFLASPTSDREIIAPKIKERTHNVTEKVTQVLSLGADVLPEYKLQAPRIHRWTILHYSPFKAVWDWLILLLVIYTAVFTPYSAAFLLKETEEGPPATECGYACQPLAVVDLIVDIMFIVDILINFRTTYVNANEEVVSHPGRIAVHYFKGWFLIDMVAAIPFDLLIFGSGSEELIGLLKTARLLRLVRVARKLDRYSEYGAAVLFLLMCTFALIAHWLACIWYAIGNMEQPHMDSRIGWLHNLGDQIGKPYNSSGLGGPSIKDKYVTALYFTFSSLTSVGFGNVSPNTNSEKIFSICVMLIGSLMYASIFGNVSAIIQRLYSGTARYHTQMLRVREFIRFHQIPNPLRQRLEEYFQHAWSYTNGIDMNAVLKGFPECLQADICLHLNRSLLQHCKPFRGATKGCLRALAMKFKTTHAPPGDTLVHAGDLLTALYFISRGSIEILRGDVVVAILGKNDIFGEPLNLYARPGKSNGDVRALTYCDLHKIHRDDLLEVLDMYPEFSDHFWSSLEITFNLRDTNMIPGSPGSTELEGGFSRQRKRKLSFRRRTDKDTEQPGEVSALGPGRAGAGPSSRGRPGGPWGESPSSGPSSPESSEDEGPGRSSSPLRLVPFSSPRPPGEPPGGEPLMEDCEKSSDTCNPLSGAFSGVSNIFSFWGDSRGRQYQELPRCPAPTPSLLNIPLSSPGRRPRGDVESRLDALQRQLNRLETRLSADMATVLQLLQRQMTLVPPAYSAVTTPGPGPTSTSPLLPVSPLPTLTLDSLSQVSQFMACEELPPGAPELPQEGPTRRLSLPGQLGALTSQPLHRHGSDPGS

[5] = tested on: Staphylococcus epidermidis; assay: Antibacterial activity against Staphylococcus epidermidis ATCC 12228 at 100 ug after 24 hrs; type: functional, organism-based
[6] = Half life in rat at 10 mg/kg, iv; type: ADME, organism-based; design: dose 10 mg/kg, route intravenous; settings: in vivo
Klebsiella oxytoca = assay: Antibacterial activity against Klebsiella oxytoca ATCC 8724 at 100 ug after 24 hrs; type: functional, organism-based
[7] = Selectivity index, ratio of CC50 for rat L6 cells to IC50 for Trypanosoma brucei rhodesiense STIB900; type: functional
[8] = tested on: Trypanosoma brucei rhodesiense; assay: Antitrypanosomal activity against Trypanosoma brucei rhodesiense STIB900 bloodstream forms after 72 hrs by alamar blue assay; type: functional, organism-based; settings: STIB900, 72 h
Trypanosoma = assay: Antiparasitic activity against Trypanosoma sp.; type: functional, organism-based
Plasmodium falciparum = assay: Antiplasmodial activity against chloroquine and pyrimethamine resistant Plasmodium falciparum K1 infected in human red blood cells assessed as reduction in parasite viability after 48 hrs by [3H]-hypoxanthine incorporation assay; type: functional, organism-based
Plasmodium berghei [9] = assay: Antiplasmodial activity against GFP-transfected Plasmodium berghei ANKA infected in NMRI mouse assessed as reduction in parasitemia at 200 mg/kg, po administered 24 hrs post infection by FACS analysis; type: functional
Plasmodium berghei [10] = assay: Antiplasmodial activity against GFP-transfected Plasmodium berghei ANKA infected in NMRI mouse assessed as mean survival day at 100 mg/kg, po administered 4, 24, 48 and 72 hrs post infection (reference value: 4 days); type: functional
Enterococcus faecium = assay: Antibacterial activity against Enterococcus faecium ATCC 6057 at 100 ug after 24 hrs; type: functional; settings: ATCC 6057, 24 h, read-out: DIZ
Raoultella planticola = assay: Antibacterial activity against Raoultella planticola ATCC 15050 at 100 ug after 24 hrs; type: functional, organism-based
Plasmodium berghei [11] = assay: Antiplasmodial activity against GFP-transfected Plasmodium berghei ANKA infected in NMRI mouse assessed as reduction in parasitemia at 100 mg/kg, po administered 4, 24, 48 and 72 hrs post infection by FACS analysis; type: functional
L6 = assay: Cytotoxicity against rat L6 cells after 72 hrs by alamar blue assay; type: cell-based; settings: L6, 72 h
[12] = tested on: Mycolicibacterium smegmatis; assay: Antimycobacterial activity against Mycobacterium smegmatis ATCC 14468 assessed as inhibition of bacterial growth after 72 hrs by MTT dye based microbroth dilution assay; type: functional; settings: ATCC 14468, 72 h
Plasmodium berghei [13] = assay: Antiplasmodial activity against GFP-transfected Plasmodium berghei ANKA infected in NMRI mouse assessed as mean survival day at 200 mg/kg, po administered 24 hrs post infection (reference value: 3 days); type: functional
Leishmania sp. = assay: Antiparasitic activity against Leishmania sp.; type: functional, organism-based
Mus musculus = assay: Toxicity in GFP-transfected Plasmodium berghei ANKA infected NMRI mouse at 200 mg/kg, po administered 24 hrs post infection; type: organism-based; design: dose 200 mg/kg, route oral; settings: in vivo
Plasmodium berghei [14] = assay: Antiplasmodial activity against GFP-transfected Plasmodium berghei ANKA infected in NMRI mouse assessed as reduction in parasitemia administered intraperitoneally 4, 24, 48 and 72 hrs post infection by FACS analysis; type: functional
[15] = Selectivity index, ratio of CC50 for rat L6 cells to IC50 for chloroquine and pyrimethamine resistant Plasmodium falciparum K1; type: functional
Proteus mirabilis = assay: Antibacterial activity against Proteus mirabilis ATCC 14153 at 100 ug after 24 hrs; type: functional; settings: ATCC 14153, 24 h, read-out: DIZ
Enterococcus faecalis = assay: Antibacterial activity against Enterococcus faecalis ATCC 14506 at 100 ug after 24 hrs; type: functional
Plasmodium berghei [16] = assay: Antiplasmodial activity against GFP-transfected Plasmodium berghei ANKA infected in NMRI mouse assessed as reduction in parasitemia at 100 mg/kg, po administered 24 hrs post infection by FACS analysis; type: functional
Bacillus subtilis = assay: Antibacterial activity against Bacillus subtilis ATCC 6051 at 100 ug after 24 hrs; type: functional, organism-based
Candida tropicalis = assay: Antifungal activity against Candida tropicalis ATCC 13803 at 100 ug after 48 hrs; type: functional, organism-based
Plasmodium berghei [17] = assay: Antiplasmodial activity against GFP-transfected Plasmodium berghei ANKA infected in NMRI mouse assessed as mean survival day at 100 mg/kg, po administered 24 hrs post infection (reference value: 3 days); type: functional
Candida parapsilosis = assay: Antifungal activity against Candida parapsilosis ATCC 90018 at 100 ug after 48 hrs; type: functional, organism-based
Escherichia coli = assay: Antibacterial activity against Escherichia coli ATCC 25922 at 100 ug after 24 hrs; type: functional; settings: ATCC 25922, 24 h, read-out: DIZ
Staphylococcus aureus = assay: Antibacterial activity against Staphylococcus aureus ATCC 25923 at 100 ug after 24 hrs; type: functional
Plasmodium berghei [18] = assay: Antiplasmodial activity against GFP-transfected Plasmodium berghei ANKA infected in NMRI mouse assessed as reduction in parasitemia at 20 mg/kg, ip administered 4, 24, 48 and 72 hrs post infection by FACS analysis; type: functional; settings: route intraperitoneal
hERG (KCNH2) [19] = molecular target: T1, hERG (KCNH2) (Homo sapiens, UniProt Q12809); assay: Inhibition of human ERG expressed in HEK293 cells assessed as reduction in tail current at 3 uM and at membrane potential of +20 mV; type: cell-based; settings: HEK293 cells that express hERG
T1 sequence (Q12809 whole entry): as above

Plasmodium berghei [20] = assay: Antiplasmodial activity against orally dosed GFP-transfected Plasmodium berghei ANKA infected in NMRI mouse assessed as reduction in parasitemia by FACS analysis; type: functional
Plasmodium berghei [21] = assay: Antiplasmodial activity against GFP-transfected Plasmodium berghei ANKA infected in NMRI mouse assessed as reduction in parasitemia at 50 mg/kg, ip administered 4, 24, 48 and 72 hrs post infection by FACS analysis; type: functional; settings: route intraperitoneal
Plasmodium berghei [22] = assay: Antiplasmodial activity against GFP-transfected Plasmodium berghei ANKA infected in NMRI mouse assessed as reduction in parasitemia at 10 mg/kg, ip administered 4, 24, 48 and 72 hrs post infection by FACS analysis; type: functional; settings: route intraperitoneal
hERG (KCNH2) [23] = molecular target: T1, hERG (KCNH2); assay: Inhibition of human ERG expressed in HEK293 cells assessed as reduction in tail current at 3 uM and at membrane potential of +0 mV; type: cell-based; settings: HEK293 cells that express hERG

## Cl.c1ccc(C2CC3(N4CCCC4)CNCC2C(c2ccccc2)C3)cc1 (racemic)
Plasmodium berghei [1]
  MSD: 10 days
Candida albicans
  diameter of the inhibition zone (DIZ): inactive
Plasmodium berghei [2]
  MSD: 4 days
Plasmodium berghei [3]
  MSD: 15 days
[4]
  IC50: 2.63 µM
[4]; human, hek293
  inhibition (INH): Dose-dependent effect
[5]
  diameter of the inhibition zone (DIZ): inactive
[6]
  half-life: 18 min
Klebsiella oxytoca
  diameter of the inhibition zone (DIZ): inactive
[7]
  Ratio IC50: 72.9
[8]
  IC50: 1 µM
Trypanosoma
  inhibition: Active
Plasmodium falciparum
  IC50: 0.095 µM
Plasmodium berghei [9]
  inhibition in vivo at 200 mg/kg: 66.1%
Plasmodium berghei [10]
  MSD: 18.6 days
Enterococcus faecium
  zone of inhibition at 100 µg/disc: 10 mm
Raoultella planticola
  diameter of the inhibition zone (DIZ): inactive
Plasmodium berghei [11]
  inhibition in vivo at 100 mg/kg: 97.7%
L6
  IC50: 72.9 µM
[12]
  MIC: 128 µg/mL
Plasmodium berghei [13]
  MSD: 16 days
Leishmania sp.
  inhibition: Active
Mus musculus
  Activity: Toxic
Plasmodium berghei [14]
  inhibition: Dose-dependent effect
Plasmodium berghei [14]; ip
  ED50: 17 mg/kg
  ED90: 40 mg/kg
[15]
  Ratio IC50: 767.7
Proteus mirabilis
  zone of inhibition at 100 µg/disc: 11 mm
Enterococcus faecalis
  diameter of the inhibition zone (DIZ): inactive
Plasmodium berghei [16]
  inhibition in vivo at 100 mg/kg: 70.5%
Bacillus subtilis
  diameter of the inhibition zone (DIZ): inactive
Candida tropicalis
  diameter of the inhibition zone (DIZ): inactive
Plasmodium berghei [17]
  MSD: 12 days
Candida parapsilosis
  diameter of the inhibition zone (DIZ): inactive
Escherichia coli
  zone of inhibition at 100 µg/disc: 10 mm
Staphylococcus aureus
  diameter of the inhibition zone (DIZ): inactive
Plasmodium berghei [18]
  inhibition in vivo at 20 mg/kg: 60.1%
hERG (KCNH2) [19]
  inhibition at 3 µM: 54.8%
Plasmodium berghei [20]
  inhibition: Dose-dependent effect
Plasmodium berghei [20]; po
  ED50: 75 mg/kg
Plasmodium berghei [21]
  inhibition in vivo at 50 mg/kg: 94.8%
Plasmodium berghei [22]
  inhibition in vivo at 10 mg/kg: 25.1%
hERG (KCNH2) [23]
  inhibition at 3 µM: 45.9%
